Entries after “also recorded” stand apart in the source; their conditions may differ.
What was measured:
SCG neurons [1] = experiment: Protection of SCG neurons from anti-NGF killing; format: cell-based, Sprague Dawley rats; settings: Rattus norvegicus, Neuron; anti-NGF antibody, serum and NGF free 48 hours, Alamar Blue; +/−1 uM; read-out: IC(50), rescue from anti-NGF killing of SCG neurons
Description: Neurotrophins are critical to the growth, development, and survival of small fiber neurons of the PNS. SCG neurons are neurons of the PNS that undergo apoptosis upon NGF withdrawal. In a typical experiment SCG neurons are cultured in the presence of NGF, which induces survival and neurite out-growth. After 5 days the NGF is removed by either the addition of anti-NGF polyclonal antibody (Sigma) or by repeated washings (4 times) with NGF free media, resulting in the apoptosis of up to 90% of the neurons after 48 hours, as measured by MTS staining.
After 4 days the cells were treated with anti-NGF antibody (Sigma). At this time compound was added and the cells were maintained serum and NGF free for 48 hours, at which time viability was assessed using Alamar Blue (Medicorp) staining.

SCG neurons [2] = experiment: cells; format: cell-based, Sprague Dawley rats; settings: for IC50: Rattus norvegicus, Neuron
[3] = system: human ovarian carcinoma cells (OV2008); experiment: Co-treatment of OV2008 cell line with Taxol and compound 1; format: cell-based; settings: Taxol™ (50 nM) + compound at 5, 10, 20 uM; Taxol™ and/or cisplatin
Description: H460 and OV2008 cells were plated and incubated for 48 hours. Compound 1 and/or compound 1 and Taxol™ were added. Viability was determined after 24 hours, staining with MTT (Promega).
FIG. 3 illustrates the co-treatment of H460 and OV 2008 cell lines with Taxol™ and compound 1. H460 lung carcinoma and OV2008 ovarian carcinoma cells were treated with Taxol™ (50 nM) and/or Taxol™ (50 nM)+compound 1 (noted as AEG 03482) at levels of 5, 10, and 20 uM.

sciatic nerve = experiment: Sciatic nerve crush injury model; format: in vivo, Sprague Dawley rats
Description: The sciatic nerve crush model is a representative model of axonal repair and regeneration. The sciatic nerve is physically crushed with forceps at the mid-thigh; only the right leg is injured, the left leg serving as a control. The axons die from the crush point to their point of innervation. Functional loss of the axons is rapidly observed as the animals drag their right leg and the toes of the right leg no longer spread. Recovery is observed in approximately 28 days as the animals regain use of their right leg. More quantitative measurements of recovery include toe spread measurements between the digits 1 and 5 and digits 2 and 4, gait analysis and electrical conductivity from the toes to the injury site (see Example 161). Male Sprague Dawley rats were anaesthetized (halothane and buprenorphine) and the right hind leg was blunt dissected to expose the sciatic nerve at mid-thigh. The nerve was crushed twice for a total of 30 seconds using No.7 Dumont jeweller's forceps. The incision is sutured and the animals are allowed to recover for 28 days. Functional recovery was measured by gait, nerve conductance and toe spread measurements between digits 1 and 5 and digits 2 and 4.

[4] = system: retinal ganglion (RG) neurons; experiment: Optical stroke model; format: in vivo, rat
Description: Various diseases which result in loss of vision are related to increased inter-ocular pressure and ocular stroke or ischemia. Loss of the retinal ganglion (RG) occur during ischemic insult and in diseases such as diabetes and glaucoma. A model of inter-ocular ischemia involves an invasive increase in ocular pressure which results in the collapse of the central retinal artery. Retinal ischemia is confirmed by whitening of the iris and loss of red reflex. The inter-ocular pressure is normalized after 30 minutes. This procedure is performed on the right eye and the left eye serves as a control. Compound was given either by intra-vitrial injection or via SC injections at 10 mg/kg (see Example 162).
The right eye of each rat was dilated fully using 1% tropacamide and 2% pheylephrine hydrochloride (Alcon Canada). A single drop of 0.5% proparacaine (Alcon) was used as a topical anesthetic. The anterior chamber of the right eye was cannulated with a 30-gauge needle connected to a saline reservoir and a manometer to monitor intraocular pressure. Intraocular pressure was raised to 110 mm Hg by raising the saline reservoir for 60 minutes. This increase in pressure collapses the central retinal artery. […] Optical function after 24 hrs, 28 hrs and 7 days was assessed using ERG measurements and histological staining of the RG layer.

CA II = CA II (Homo sapiens, UniProt P00918); experiment: CA II inhibition; format: biochemical; settings: read-out: CAII(50)
Description: CA II inhabition was measured using the protocol described by Pocker, Y.'Stone, J. Biochemistry 1967, 6, 668.

Erk = Erk activity in PC12 cells and sympathetic neurons; format: cell-based; settings: PC12 cells and primary cultures of sympathetic neurons
Description: (§1) Additionally, the Erks protect cultured neurons from a number of insults including neurotrophin withdrawal (Bonni, A., et al., Science, 1999, 286, 1358-1362). […] Compound 1, therefore, protects neurons by activating a subset of NGF-stimulated signaling pathways.

Akt = Akt activity in PC12 cells and SCGs; format: cell-based
Description: as §1

SCG neurons [5] = experiment: cells; settings: Rattus norvegicus, Neuron, 48 h, read-out: IC50, protection of SCG neurons against cisplatin killing

NS(=O)(=O)c1nn2cc(-c3ccccc3)nc2s1 [Compound 1, 6-Phenylimidazo[2,1-b]-1,3,4-thiadiazole-2-sulfonamide]
IC50 (SCG neurons [1]): 22 µM
protection against Taxol™ induced killing (SCG neurons [2]; 10 uM, Taxol™ 50 ng/mL, MTS): 100%
IC50 (SCG neurons [2]; Taxol™ (50 ng/mL), viability 48 hours later, MTS, read-out: IC(50), protection of SCG neurons from Taxol killing): 7 µM
IC50 (SCG neurons [2]; read-out: IC(50) against Taxol killing of SCGs): 7 µM
protection of OV2008 cells from Taxol™ induced apoptosis [3]: no protection; also recorded: did not protect
functional recovery after sciatic nerve crush (sciatic nerve; 1 and 10 mg/kg): improved recovery
recovery in toe spread area (inner toe spread) (sciatic nerve; versus vehicle control): induced increased recovery
protection of RG population / ERG conductance after ocular stroke ([4]; given post stroke, intravitreally then daily injections for 1 week): protects the RG population allowing for normal conductance
histology of the RG layer ([4]; intra-vitrial injection or SC): healthy RG layers
IC50 (CA II): 250 nM
Erk activity (Erk): dramatic increase
activity of Akt (Akt): remained unchanged
IC50 (SCG neurons [5]): 5 µM
